US20100093609A1, “PRODRUGS OF TRICIRIBINE AND TRICIRIBINE PHOSPHATE” (priority 2007, published 2010)

Legend:
[1] = Stability in 100 mM phosphate buffer, pH 6.5; details: pH 6.5, 37° C., 0-3 hours, LC/MS/MS
[2] = Systemic plasma concentrations after duodenal administration to rats; details: rat, duodenal administration of 3 mg
in vitro = details: human

Which results are given for `CN1N=C(N)c2cn([C@@H]3O[C@H](COP(=O)(O)O)[C@@H](O)[C@H]3O)c3ncnc1c23` [TCNP, 6-amino-4-methyl-8-(beta.-D-ribofuranosyl)pyrrolo[4,3,2-de]pyrimido[4,5-c]pyridazine 5′ phosphate]?
cytotoxic effects (in words) (HFF cells): more toxic than TCN; stability in buffer (in words) [1]: stable; intestinal absorption / plasma levels (in words) [2]: very little intestinal absorption; peak plasma levels ([2]; FIGS. 5 and 6): about 1.25 ng/ml; AUC0-4 hr of the administered compound (parent or intact prodrug) ([2]; plasma over 4 hours): 4.4 ± 0.9 (ng/ml)/hr; IC50 at 8 days (in vitro): 32 µM
